The source of these data is patent US20130171158A1, “TREATMENT OF ABNORMALITIES OF GLUCOSE METABOLISM WITH AN ANTAGONIST OF INHIBITOR OF DIFFERENTIATION 1” (GARVAN INSTITUTE OF MEDICAL RESEARCH, priority 2010, published 2013).

In the assay the test system is MIN6 cells. The assay is described as follows: Insulin secretion assay in MIN6 cells treated with palmitate with or without Cannabidiol. In kind it is cell-based, mouse. The conditions noted are these: 10 μM Cannabidiol, 0.4 mM palmitate coupled to 0.92% BSA for 48 h; 2.8 or 25 mM glucose for 1 h. The procedure: FIG. 11 is a graphical represenatation showing that an inhibitor of Id1 expression (Cannabidiol) protects MIN6 beta cells against lipid (palmitate)-induced insulin secretory dysfunction. Cells were treated with either 0.92% BSA or 0.92% BSA coupled to 0.4 mM palmitate for 48 h, in combination with the absence or presence of 10 μM Cannabidiol. Insulin secretion assay was performed. After 30-min preincubation in KRB medium containing 2.8 mM glucose, the cells were incubated in KRB medium containing either 2.8 mM glucose (clear bars) or 25 mM glucose (dark bars) for 1 h. Medium was taken to determine levels of insulin secretion. Insulin secretion expressed as fold change compared with Control cells incubated with 25 mM glucose. Results are means±SE. The MIN6 cell line was also used to examine the effects of inhibition of Id1 on lipid-induced insulin secretory dysfunction. MIN6 cells were grown in DMEM. Cells were seeded at 2×10^5 cells per well in 24-well plates. Cells were treated with either 0.92% BSA or 0.92% BSA coupled to 0.4 mM palmitate for 48 h, in combination with the absence or presence of 10 μM Cannabidiol. After chronic incubation, cells were washed in KRB buffer containing 2.8 mM glucose, and then they were preincubated for a further 30 min in 0.5 ml of the same medium at 37° C. […]

With `C=C(C)[C@@H]1CCC(C)=C[C@H]1c1c(O)cc(CCCCC)cc1O` [Cannabidiol], the “protection against palmitate-induced insulin secretory dysfunction” value is on record as “protected the cells against palmitate-induced insulin secretory dysfunction”.
